Measurements taken from publication PMC7873477, “Fermentative Production of L-2-Hydroxyglutarate by Engineered Corynebacterium glutamicum via Pathway Extension of L-Lysine Biosynthesis” (Frontiers in Bioengineering and Biotechnology, 2021).

How the values were obtained:
CsiD (HEGluA) = target: T1, CsiD (HEGluA) (Escherichia coli, UniProt P76621); experiment: L-2HG formation by engineered C. glutamicum, HPLC of supernatant; type: cell-based, Corynebacterium glutamicum; conditions: whole cells, endogenously formed glutarate; Fe(II) and 2-oxoglutarate dependent; 96 h
T1 construct: gene glaH; untagged, from pVWEx1-ldcC-csiD(Ec) in C. glutamicum GSLA2G; whole-cell production
T1 sequence (P76621 1-325): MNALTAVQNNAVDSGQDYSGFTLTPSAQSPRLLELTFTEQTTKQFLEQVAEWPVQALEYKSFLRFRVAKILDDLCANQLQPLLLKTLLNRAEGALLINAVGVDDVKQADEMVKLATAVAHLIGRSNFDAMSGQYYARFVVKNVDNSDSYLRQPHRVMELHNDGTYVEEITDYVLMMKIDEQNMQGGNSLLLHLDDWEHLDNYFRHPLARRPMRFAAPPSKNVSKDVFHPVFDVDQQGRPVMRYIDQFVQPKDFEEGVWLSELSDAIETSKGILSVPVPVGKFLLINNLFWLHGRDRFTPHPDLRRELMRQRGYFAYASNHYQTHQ

CsiD (HPGluA) = target: T2, CsiD (HPGluA) (Pseudomonas putida, UniProt Q88IU0); experiment: as above; type: cell-based; conditions: whole cells, endogenously formed glutarate; Fe(II) and 2-oxoglutarate dependent; 96 h
T2 construct: gene glaH; untagged, from pVWEx1-ldcC-csiD(Pp) in C. glutamicum GSLA2G; whole-cell production
T2 sequence (Q88IU0 1-325): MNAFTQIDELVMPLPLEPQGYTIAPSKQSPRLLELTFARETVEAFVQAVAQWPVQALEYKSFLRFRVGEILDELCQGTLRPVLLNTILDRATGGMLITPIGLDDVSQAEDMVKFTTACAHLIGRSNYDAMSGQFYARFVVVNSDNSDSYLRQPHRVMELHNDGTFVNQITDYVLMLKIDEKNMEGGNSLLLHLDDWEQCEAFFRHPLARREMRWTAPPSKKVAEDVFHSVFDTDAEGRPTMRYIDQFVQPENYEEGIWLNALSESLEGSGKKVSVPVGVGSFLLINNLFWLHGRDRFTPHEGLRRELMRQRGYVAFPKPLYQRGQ

O=C(O)CCCC(=O)O [glutarate]
L-2HG formation by engineered C. glutamicum, HPLC of supernatant (CsiD (HEGluA)): the three strains produced and secreted L-2HG
L-2HG formation by engineered C. glutamicum, HPLC of supernatant (CsiD (HPGluA)): the three strains produced and secreted L-2HG
